Blank lines part the entries; values can stand above or below the molecule they belong to.
Experiments:
ADORA3 = assay: GPCR panel (control), Arrestin, CHO-K1; format: cell-based, human; conditions: reference agonist
CRTH2 = CRTH2 (Homo sapiens, UniProt Q9Y5Y4); assay: GPCR panel (control), Arrestin, U2OS; format: cell-based; conditions: reference agonist
CCR2 = assay: GPCR panel (control), Arrestin, CHO-K1; format: cell-based, human; conditions: reference agonist
CCR5 = assay: GPCR panel (control), Arrestin, CHO-K1; format: cell-based, human; conditions: reference agonist
CCR3 = assay: GPCR panel (control), Arrestin, CHO-K1; format: cell-based, human; conditions: reference agonist
CCR7 = assay: GPCR panel (control), Arrestin, CHO-K1; format: cell-based, human; conditions: reference agonist
CCR6 = assay: GPCR panel (control), Arrestin, CHO-K1; format: cell-based, human; conditions: reference agonist
CXCR3 = assay: GPCR panel (control), Arrestin, CHO-K1; format: cell-based, human; conditions: reference agonist
CXCR5 = assay: GPCR panel (control), Arrestin, CHO-K1; format: cell-based, human; conditions: reference agonist
CXCR1 = assay: GPCR panel (control), Arrestin, U2OS; format: cell-based, human; conditions: reference agonist
CXCR2 = assay: GPCR panel (control), Arrestin, HEK-293; format: cell-based, human; conditions: reference agonist, CXCR2, HEK-293, Arrestin
CXCR6 = assay: GPCR panel (control), Arrestin, HEK-293; format: cell-based, human; conditions: reference agonist, CXCR6, HEK-293, Arrestin
CCR8 = assay: GPCR panel (control), Arrestin, CHO-K1; format: cell-based, human; conditions: reference agonist
XCR1 = assay: GPCR panel screening, cAMP assay, XCR1; format: cell-based, human; conditions: reference agonist, XCR1, CHO
Procedure: The chemokine receptor XCR1, coupled to Gαi, was tested in cAMP assays.
Screening the GPCRs panels was performed by DiscoverX (Eurofins) using β-arrestin recruitment assays unless otherwise indicated (for details, see Supplementary Data 2). […]
chemokine receptors (CCR1, CCR2, CCR3, CCR4, CCR5, CCR6, CCR7, CCR8, CCR9, CCR10, CXCR1, CXCR2, CXCR3, CXCR4, CXCR5, CXCR6, and CX3CR1) versus their corresponding agonist at their determined EC80 (see Supplementary Data 2). CXCL14 was preincubated for 30 min, then the standard agonist for the investigated receptor was added, followed by another incubation for 90 min without washing step in between. The chemokine receptor XCR1, coupled to Gαi, was tested in cAMP assays. The readout was relative luminescence units (RLU). The percentage of inhibition was calculated using the following formula: % Inhibition = 100% x (1 - (mean RLU of CXCL14- mean RLU of vehicle control) / (mean RLU of EC80 control - mean RLU of vehicle control)). For further details see Supplementary Data 2.
(1 picture or pasted object on this page, not shown here)

C5AR1 = assay: GPCR panel (control), Arrestin, CHO-K1; format: cell-based, human; conditions: reference agonist
C5LR2 = assay: GPCR panel (control), Arrestin, CHO-K1; format: cell-based, human; conditions: reference agonist
CCR4 = assay: GPCR panel (control), Arrestin, CHO-K1; format: cell-based, human; conditions: reference agonist
CX3CR1 = assay: GPCR panel (control), Arrestin, CHO-K1; format: cell-based, human; conditions: reference agonist
CCR10 = assay: GPCR panel (control), Arrestin, U2OS; format: cell-based, human; conditions: reference agonist

Sequence of CRTH2 (Q9Y5Y4 whole entry): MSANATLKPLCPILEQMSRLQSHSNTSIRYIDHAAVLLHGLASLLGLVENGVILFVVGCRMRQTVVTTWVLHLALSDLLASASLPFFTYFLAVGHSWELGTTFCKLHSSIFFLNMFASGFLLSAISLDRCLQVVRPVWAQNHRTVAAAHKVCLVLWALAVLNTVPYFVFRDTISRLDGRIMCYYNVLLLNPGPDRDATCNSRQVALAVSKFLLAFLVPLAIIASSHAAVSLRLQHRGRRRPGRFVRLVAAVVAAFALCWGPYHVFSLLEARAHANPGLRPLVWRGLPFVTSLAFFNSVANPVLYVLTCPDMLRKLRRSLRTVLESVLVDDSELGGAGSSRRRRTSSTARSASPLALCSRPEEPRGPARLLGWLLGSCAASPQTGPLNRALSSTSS

Molecule: CCL2
EC50 (CCR2): 3.1 nM
EC80 (CCR2): 200 nM

Molecule: CCL3
EC50 (CCR5): 7.2 nM
EC80 (CCR5): 310 nM

Molecule: CCL20
EC50 (CCR6): 6.2 nM
EC80 (CCR6): 710 nM

Molecule: CXCL13
EC50 (CXCR5): 24 nM
EC80 (CXCR5): 1200 nM

Molecule: Interleukin-8
EC50 (CXCR1): 1.7 nM
EC80 (CXCR1): 300 nM
EC50 (CXCR2): 1.1 nM
EC80 (CXCR2): 230 nM

B2: CCL1 (protein, UniProt P22362 24-96, looked up)
C-C motif chemokine 1: KSMQVPFSRCCFSFAEQEIPLRAILCYRNTSSICSNEGLIFKLKRGKEACALDTVGWVQRHRKMLRHCPSKRK
EC50 (CCR8): 40 nM
EC80 (CCR8): 1900 nM

B3: XCL1/Lymphotactin (protein, UniProt P47992 22-114, looked up)
Lymphotactin: VGSEVSDKRTCVSLTTQRLPVSRIKTYTITEGSLRAVIFITKRGLKVCADPQATWVRDVVRSMDRKSNTRNNMIQTKPTGTQQSTNTAVTLTG
EC50 (XCR1): 8.8 nM
EC80 (XCR1): 480 nM

B4: Complement C5a (protein, UniProt P01031 678-751, looked up)
C5a anaphylatoxin: TLQKKIEEIAAKYKHSVVKKCCYDGACVNNDETCEQRAARISLGPRCIKAFTECCVVASQLRANISHKDMQLGR
modifications: C5a anaphylatoxin
EC50 (C5AR1): 1.3 nM
EC80 (C5AR1): 71 nM
EC50 (C5LR2): 2.2 nM
EC80 (C5LR2): 43 nM

B5: CCL22 (protein, UniProt O00626 25-93, looked up)
C-C motif chemokine 22: GPYGANMEDSVCCRDYVRYRLPLRVVKHFYWTSDSCPRPGVVLLTFRDKEICADPRVPWVKMILNKLSQ
EC50 (CCR4): 2.4 nM
EC80 (CCR4): 120 nM

B6: Fractalkine (protein, UniProt P78423 25-397, looked up)
Fractalkine: QHHGVTKCNITCSKMTSKIPVALLIHYQQNQASCGKRAIILETRQHRLFCADPKEQWVKDAMQHLDRQAAALTRNGGTFEKQIGEVKPRTTPAAGGMDESVVLEPEATGESSSLEPTPSSQEAQRALGTSPELPTGVTGSSGTRLPPTPKAQDGGPVGTELFRVPPVSTAATWQSSAPHQPGPSLWAEAKTSEAPSTQDPSTQASTASSPAPEENAPSEGQRVWGQGQSPRPENSLEREEMGPVPAHTDAFQDWGPGSMAHVSVVPVSSEGTPSREPVASGSWTPKAEEPIHATMDPQRLGVLITPVPDAQAATRRQAVGLLAFLGLLFCLGVAMFTYQSLQGCPRKMAGEMAEGLRYIPRSCGSNSYVLVPV
EC50 (CX3CR1): 0.13 nM
EC80 (CX3CR1): 15 nM

Now from value to molecule, other results behind:

EC50 (CRTH2): 21 nM
EC80 (CRTH2): 1200 nM
Molecule: CCCCC[C@H](O)/C=C/[C@H]1C(=O)C[C@H](O)[C@@H]1C/C=C\CCCC(=O)O [Prostaglandin D2]

EC50 (CCR3): 8.8 nM
Molecule: CCL13
EC80 (CCR3): 210 nM

EC50 (CCR7): 9.5 nM
Molecule: CCL19
EC80 (CCR7): 230 nM

EC50 (CXCR3): 9.3 nM
Molecule: CXCL11
EC80 (CXCR3): 280 nM

EC50 (CXCR6): 1.5 nM
B1: CXCL16 (protein, UniProt Q9H2A7 30-254, looked up)
C-X-C motif chemokine 16: NEGSVTGSCYCGKRISSDSPPSVQFMNRLRKHLRAYHRCLYYTRFQLLSWSVCGGNKDPWVQELMSCLDLKECGHAYSGIVAHQKHLLPTSPPISQASEGASSDIHTPAQMLLSTLQSTQRPTLPVGSLSSDKELTRPNETTIHTAGHSLAAGPEAGENQKQPEKNAGPTARTSATVPVLCLLAIIFILTAALSYVLCKRRRGQSPQSSPDLPVHYIPVAPDSNT
EC80 (CXCR6): 130 nM

EC50 (CCR10): 65 nM
B7: CCL27 (protein, UniProt Q9Y4X3 25-112, looked up)
C-C motif chemokine 27: FLLPPSTACCTQLYRKPLSDKLLRKVIQVELQEADGDCHLQAFVLHLAQRSICIHPQNPSLSQWFEHQERKLHGTLPKLNFGMLRKMG
EC80 (CCR10): 1700 nM
